Reference: paper PMC10215355, “Chemical Composition of the Cinnamomum malabatrum Leaf Essential Oil and Analysis of Its Antioxidant, Enzyme Inhibitory and Antibacterial Activities” (Antibiotics, 2023)
In brackets after ≈: the same amount, converted by molar mass.

Key:
DPPH radical scavenging = conditions: 0 to 100 µg/mL series
Experimental: (§1) The concentration of essential oil used was a different series from 0 to 100 μg/mL for each radical quenching assay. The quenching of DPPH radicals was analyzed using the methods of [70]. The ABTS radicals scavenging activity was analyzed according to the methods of Li et al.. The hydrogen peroxide quenching potential of the essential oil was following the methods of Munteanu and […] [72]. The ferric-reducing abilities of the essential oil were estimated according to the methods described by He et al.. The methods described by Okoh et al.

ABTS radical scavenging = conditions: 0 to 100 µg/mL series
Experimental: as §1

[1] = H2O2 radical scavenging (hydrogen peroxide quenching); conditions: 0 to 100 µg/mL series
Experimental: as §1

[2] = Ferric-reducing potential (FRAP); conditions: 0 to 100 µg/mL series
Experimental: as §1

[3] = Lipid peroxidation inhibition (ex vivo); conditions: 0 to 100 µg/mL series
Experimental: as §1

α-amylase = test: α-Amylase inhibition; assay type: biochemical; conditions: 0–100 μg/mL
aldose reductase = aldose reductase (Homo sapiens, UniProt P15121); test: Aldose reductase inhibition; assay type: biochemical; conditions: 0–100 μg/mL
sorbitol dehydrogenase = biological target: T1, sorbitol dehydrogenase (Homo sapiens, UniProt Q00796); test: Sorbitol dehydrogenase inhibition; assay type: biochemical; conditions: 0–100 μg/mL
T1 sequence (Q00796 1-357): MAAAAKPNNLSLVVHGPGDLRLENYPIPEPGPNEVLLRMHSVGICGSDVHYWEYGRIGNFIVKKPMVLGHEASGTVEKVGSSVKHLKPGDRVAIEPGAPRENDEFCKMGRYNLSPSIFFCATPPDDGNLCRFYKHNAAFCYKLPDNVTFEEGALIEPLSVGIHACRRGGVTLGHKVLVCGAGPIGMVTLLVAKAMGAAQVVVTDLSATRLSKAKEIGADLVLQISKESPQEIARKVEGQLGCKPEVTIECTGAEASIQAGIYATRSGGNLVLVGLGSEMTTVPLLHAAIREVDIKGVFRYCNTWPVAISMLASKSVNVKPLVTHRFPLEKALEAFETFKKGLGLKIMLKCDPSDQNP

Staphylococcus aureus [4] = test: Disc diffusion method; assay type: cell-based; conditions: 8 mm disc, 10 μL oil, 24 h
Bacillus cereus [5] = test: Disc diffusion method; assay type: cell-based; conditions: 8 mm disc, 10 μL oil, 24 h
Streptococcus pyogenes [6] = test: Disc diffusion method; assay type: cell-based; conditions: 8 mm disc, 10 μL oil, 24 h
Escherichia coli [7] = test: Disc diffusion method; assay type: cell-based; conditions: 8 mm disc, 10 μL oil, 24 h
Pseudomonas aeruginosa [8] = test: Disc diffusion method; assay type: cell-based; conditions: 8 mm disc, 10 μL oil, 24 h
Salmonella enterica [9] = test: Disc diffusion method; assay type: cell-based; conditions: 8 mm disc, 10 μL oil, 24 h
Description: (§2) The bacteria were procured from Microbial Type Culture Collection and Gene Bank (MTCC), Chandigarh and maintained under standard conditions as prescribed by Bonnet, et al.. The bacterial strains used include Escherichia coli, Pseudomonas aeruginosa, Staphylococcus aureus, Bacillus cereus, Streptococcus pyogenes and Salmonella enterica.
Initially, the bacteria cultured were completed in Luria-Bertani broth; for the antibacterial study, the inoculum of the bacteria was made on a Mueller Hinton Agar (MHA) agar plate (Himedia, Mumbai, Maharashtra, India) at a thickness of 5 mm. Later, a filter paper disc (8 mm in diameter) containing the leaf essential oil of C. malabatrum (10 μL) was placed in the agar plate at a distance of 50 mm. At the end of 24 h, the formation of the growth inhibition zone was estimated.

Staphylococcus aureus [10] = test: Minimum inhibitory concentration (96-well, TTC); assay type: cell-based
Bacillus cereus [11] = test: Minimum inhibitory concentration (96-well, TTC); assay type: cell-based
Streptococcus pyogenes [12] = test: Minimum inhibitory concentration (96-well, TTC); assay type: cell-based
Escherichia coli [13] = test: Minimum inhibitory concentration (96-well, TTC); assay type: cell-based
Pseudomonas aeruginosa [14] = test: Minimum inhibitory concentration (96-well, TTC); assay type: cell-based
Salmonella enterica [15] = test: Minimum inhibitory concentration (96-well, TTC); assay type: cell-based
Description: as §2
The determination of the MIC value was made according to the methods described by Campana, et al.. Before beginning, the density of the inoculum was spectrophotometrically set to 5 × 10^5 CFU/mL. From this, about 50 µL was transferred to individual wells of a 96-well plate containing different concentrations of C. malabatrum essential oil. Later, 2,3,5-triphenyltetrazolium chloride (10 µL) was added to each well; the pink color of the 2,3,5-triphenyltetrazolium chloride was lost in the absence of bacterial growth. The MIC value was considered as the lowest concentration without a detectable pink color.

α-glucosidase = test: α-Glucosidase inhibition; conditions: 0–100 μg/mL
Experimental: The enzyme-inhibitory potential of the essential oil was evaluated by mixing different concentrations (0–100 μg/mL) against the respective enzymes and their substrates. The enzyme activities will be estimated in terms of the substrate utilized after incubation. The inhibition of α-amylase [75], α-glucosidase [76], aldose reductase [77] and sorbitol dehydrogenase [78] was carried out according to the methods previously described.

C=CC(C)(O)CCC=C(C)C (stereo not shown) [Linalool]
DPPH radical scavenging IC50 (DPPH radical scavenging): 35.22 ± 0.11 µg/mL
ABTS radical scavenging IC50 (ABTS radical scavenging): 40.01 ± 1.33 µg/mL
H2O2 radical scavenging IC50 [1]: 38.09 ± 2.45 µg/mL
Ferric-reducing potential IC50 [2]: 35.93 ± 0.24 µg/mL
Lipid peroxidation inhibition IC50 [3]: 78.49 ± 3.07 µg/mL
α-Amylase inhibition IC50 (α-amylase): 62.34 ± 2.91 µg/mL
IC50 (aldose reductase): 383 µM
IC50 (sorbitol dehydrogenase): 573 µM
Zone of Inhibition (Staphylococcus aureus [4]): 18.1 ± 0.2 mm
Zone of Inhibition (Bacillus cereus [5]): 17.6 ± 0.3 mm
Zone of Inhibition (Streptococcus pyogenes [6]): 17.9 ± 0.1 mm
Zone of Inhibition (Escherichia coli [7]): 17.8 ± 0.1 mm
Zone of Inhibition (Pseudomonas aeruginosa [8]): 19.3 ± 0.2 mm
Zone of Inhibition (Salmonella enterica [9]): 16.8 ± 0.3 mm
MIC (Staphylococcus aureus [10]): 325 µg/mL (≈ 2110 µM)
MIC (Bacillus cereus [11]): 625 ± 100 µg/mL (≈ 4050 µM)
MIC (Streptococcus pyogenes [12]): 325 µg/mL (≈ 2110 µM)
MIC (Escherichia coli [13]): 625 ± 50 µg/mL (≈ 4050 µM)
MIC (Pseudomonas aeruginosa [14]): 325 ± 100 µg/mL (≈ 2110 µM)
MIC (Salmonella enterica [15]): 325 µg/mL (≈ 2110 µM)
α-Glucosidase inhibition IC50 (α-glucosidase): 30.93 ± 3.41 µg/mL

O=C1O[C@H]([C@@H](O)CO)C(O)=C1O [Ascorbic Acid]
DPPH radical scavenging IC50 (DPPH radical scavenging): 8.13 ± 0.09 µg/mL
ABTS radical scavenging IC50 (ABTS radical scavenging): 12.82 ± 0.40 µg/mL
H2O2 radical scavenging IC50 [1]: 19.11 ± 0.26 µg/mL
Lipid peroxidation inhibition IC50 [3]: 63.02 ± 0.33 µg/mL
α-Amylase inhibition IC50 (α-amylase): 45.17 ± 2.36 µg/mL
IC50 (aldose reductase): 163 µM
IC50 (sorbitol dehydrogenase): 341 µM
α-Glucosidase inhibition IC50 (α-glucosidase): 36.03 ± 1.98 µg/mL

CNC(C)C1CCC(N)C(OC2C(N)CC(N)C(OC3OCC(C)(O)C(NC)C3O)C2O)O1 (stereo not shown) [GM, gentamicin]
Zone of Inhibition (Staphylococcus aureus [4]): 18.5 ± 0.5 mm
Zone of Inhibition (Bacillus cereus [5]): 21.3 ± 0.5 mm
Zone of Inhibition (Streptococcus pyogenes [6]): 19.2 ± 0.7 mm
Zone of Inhibition (Escherichia coli [7]): 21.3 ± 0.3 mm
Zone of Inhibition (Salmonella enterica [9]): 19.9 ± 0.3 mm
MIC (Staphylococcus aureus [10]): 325 µg/mL (≈ 680 µM)
MIC (Bacillus cereus [11]): 325 µg/mL (≈ 680 µM)
MIC (Streptococcus pyogenes [12]): 167 µg/mL (≈ 350 µM)
MIC (Escherichia coli [13]): 325 µg/mL (≈ 680 µM)
MIC (Pseudomonas aeruginosa [14]): 167 µg/mL (≈ 350 µM)
MIC (Salmonella enterica [15]): 167 µg/mL (≈ 350 µM)
